Results on 19 compounds are retold here after patent publication US11584714B2 (priority 2018, dated 2023).

Where a name gives a salt, the structure may show the parent alone. Read-outs that look alike come from different tables or passages of the source. A value given as a limit tells only on which side of the number the result lay.

What all share (type): biochemical
The target in one assay is MASP-2 (CCP1-CCP2-SP) (Homo sapiens (Human), UniProt O00187). In words: biochemical. The following applies: for MASP-2 vs. thrombin selectivity: selectivity for MASP-2 inhibition versus thrombin.
Sequence of MASP-2 (CCP1-CCP2-SP) (O00187 445-686): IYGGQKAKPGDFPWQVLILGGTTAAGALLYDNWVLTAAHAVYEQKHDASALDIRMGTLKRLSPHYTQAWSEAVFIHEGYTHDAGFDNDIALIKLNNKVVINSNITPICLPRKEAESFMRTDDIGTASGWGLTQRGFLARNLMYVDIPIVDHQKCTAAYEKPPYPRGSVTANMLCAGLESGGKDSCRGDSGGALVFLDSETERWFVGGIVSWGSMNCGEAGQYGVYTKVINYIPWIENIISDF
The next assay has as its target mMASP-2 (Mus musculus (Mouse), UniProt Q91WP0). Kind of assay: Enzymatic inhibition of mMASP-2. The following applies: read-out: mMASP-2 Ki.
The target of a further assay is human α-thrombin (Homo sapiens (Human), UniProt P00734). Kind of assay: Enzymatic assay for thrombin (Boc-VPR-AMC substrate).

A word on the Ki: it is a dissociation constant, usually derived from enzyme kinetics or from competition with a known ligand.

Sequence of mMASP-2 (Q91WP0 20-685): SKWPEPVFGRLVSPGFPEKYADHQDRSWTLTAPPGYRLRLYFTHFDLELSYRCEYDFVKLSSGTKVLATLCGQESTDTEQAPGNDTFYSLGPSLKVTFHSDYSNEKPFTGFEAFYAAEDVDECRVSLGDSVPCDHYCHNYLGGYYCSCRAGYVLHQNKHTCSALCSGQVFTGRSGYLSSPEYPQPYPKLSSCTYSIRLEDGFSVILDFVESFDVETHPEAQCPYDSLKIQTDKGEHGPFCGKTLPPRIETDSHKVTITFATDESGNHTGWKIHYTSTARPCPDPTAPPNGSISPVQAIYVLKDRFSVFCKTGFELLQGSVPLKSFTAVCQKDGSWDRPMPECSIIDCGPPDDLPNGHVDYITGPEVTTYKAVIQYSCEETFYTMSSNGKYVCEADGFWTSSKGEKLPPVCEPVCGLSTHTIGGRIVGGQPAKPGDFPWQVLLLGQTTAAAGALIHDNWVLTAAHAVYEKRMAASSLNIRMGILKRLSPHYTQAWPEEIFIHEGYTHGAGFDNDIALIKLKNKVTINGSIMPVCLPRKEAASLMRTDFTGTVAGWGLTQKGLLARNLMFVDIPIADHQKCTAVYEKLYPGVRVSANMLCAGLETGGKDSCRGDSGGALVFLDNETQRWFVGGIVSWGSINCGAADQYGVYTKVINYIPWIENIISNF

Turning to `C[C@H](NC(=O)[C@H]1C[C@H](c2ccccc2)CN1)C(=O)NCc1cc(Cl)cc(C#N)c1` [compound 1386, (2R,4R)—N—((S)-1-((3-Chloro-5-cyanobenzyl)amino)-1-oxopropan-2-yl)-4-phenylpyrrolidine-2-carboxamide Trifluoroacetate salt], the Ki on MASP-2 (CCP1-CCP2-SP) was 10000 to 25000 nM; at mMASP-2, over 25000 nM; at human α-thrombin (read-out: Thrombin Ki) it was over 25 µM.

For the compound `C[C@H](NC(=O)[C@H]1C[C@H](c2ccccc2)CN1)C(=O)NCc1cc(Cl)cc(C(N)=O)c1` [compound 1387, (2R,4R)—N—((S)-1-((3-Carbamoyl-5-chlorobenzyl)amino)-1-oxopropan-2-yl)-4-phenylpyrrolidine-2-carboxamide Trifluoroacetate salt], the results for the Ki on MASP-2 (CCP1-CCP2-SP), on mMASP-2 and at human α-thrombin (read-out: Thrombin Ki) were 2500 to 10000 nM, 10000 to 25000 nM and over 25 µM, respectively.

For the compound `C[C@H](NC(=O)[C@H]1C[C@H](c2ccccc2)CN1)C(=O)NCc1ccc2c(N)noc2c1` [compound 1390, (2R,4R)—N—((S)-1-(((3-Aminobenzo[d]isoxazol-6-yl)methyl)amino)-1-oxopropan-2-yl)-4-phenylpyrrolidine-2-carboxamide Di-trifluoroacetate salt], the Ki at MASP-2 (CCP1-CCP2-SP) was 2500 to 10000 nM; at mMASP-2, over 25000 nM; at human α-thrombin (read-out: Thrombin Ki), over 25 µM.

On to `Cc1nc(N)ccc1CNC(=O)[C@H](C)NC(=O)[C@H]1C[C@H](Cc2ccc(N3CCCC3=O)cc2)CN1` [compound 1391, (2R,4S)—N—((S)-1-(((6-Amino-2-methylpyridin-3-yl)methyl)amino)-1-oxopropan-2-yl)-4-(4-(2-oxopyrrolidin-1-yl)benzyl)pyrrolidine-2-carboxamide Di-trifluoroacetate salt], for which the Ki on MASP-2 (CCP1-CCP2-SP) (read-out: MASP-2 Ki) was under 500 nM; at mMASP-2 it was under 500 nM; at human α-thrombin (read-out: Thrombin Ki) it was over 25 µM. The “MASP-2 vs. thrombin selectivity” value at MASP-2 (CCP1-CCP2-SP) is “**** (≥100-fold)”.

With `C[C@H](NC(=O)[C@H]1C[C@H](Cc2ccccc2-c2ccccc2)CN1)C(=O)NCc1cnc2[nH]cc(Cl)c2c1` [compound 1393, (2R,4S)-4-([1,1′-Biphenyl]-2-ylmethyl)-N-((S)-1-(((3-chloro-1H-pyrrolo[2,3-b]pyridin-5-yl)methyl)amino)-1-oxopropan-2-yl)pyrrolidine-2-carboxamide Di-trifluoroacetate salt], the Ki on MASP-2 (CCP1-CCP2-SP) (read-out: MASP-2 Ki) is under 500 nM; on mMASP-2, under 500 nM; at human α-thrombin (read-out: Thrombin Ki), under 0.5 µM. Besides, the “MASP-2 vs. thrombin selectivity” value on MASP-2 (CCP1-CCP2-SP) is given as “* (≥1.0 to <5.0-fold)”.

With `C[C@H](NC(=O)[C@H]1C[C@H](c2ccccc2)CN1)C(=O)NCc1cc(Cl)ccc1-n1ncnn1` [compound 1394, (2R,4R)—N—((S)-1-((5-chloro-2-(2H-tetrazol-2-yl)benzyl)amino)-1-oxopropan-2-yl)-4-phenylpyrrolidine-2-carboxamide Trifluoroacetate], the values for the Ki on MASP-2 (CCP1-CCP2-SP), on mMASP-2 and at human α-thrombin (Thrombin Ki (μM)) were 2500 to 10000 nM, over 25000 nM and 10 to 25 µM, respectively. The “MASP-2 vs. thrombin selectivity” value at MASP-2 (CCP1-CCP2-SP) was “* (≥1.0 to <5.0-fold)”.

On to `C[C@H](NC(=O)[C@H]1C[C@H](c2ccccc2)CN1)C(=O)NCc1cc(Cl)cc(Cl)c1O` [compound 1395, (2R,4R)—N—((S)-1-((3,5-dichloro-2-hydroxybenzyl)amino)-1-oxopropan-2-yl)-4-phenylpyrrolidine-2-carboxamide Trifluoroacetate], for which the Ki on MASP-2 (CCP1-CCP2-SP) was 500 to 2500 nM; at mMASP-2 it was 2500 to 10000 nM; on human α-thrombin (read-out: Thrombin Ki), over 25 µM.

As to `Cc1nc(N)ccc1CNC(=O)[C@H](C)NC(=O)[C@H]1C[C@@H](c2ccccc2)CCN1CC(=O)O` [compound 1398, 2-((2R,4S)-2-(((S)-1-(((6-Amino-2-methylpyridin-3-yl)methyl)amino)-1-oxopropan-2-yl)carbamoyl)-4-phenylpiperidin-1-yl)acetic acid Trifluoroacetate salt], the Ki at MASP-2 (CCP1-CCP2-SP) (read-out: MASP-2 Ki) is under 500 nM; on mMASP-2, 500 to 2500 nM; at human α-thrombin (read-out: Thrombin Ki), over 25 µM.

Take `Cc1nc(N)ccc1CNC(=O)[C@H](C)NC(=O)[C@H]1C[C@H](Cc2cc(-c3ccccc3)cs2)CN1` [compound 1399, (2R,4R)—N—((S)-1-(((6-Amino-2-methylpyridin-3-yl)methyl)amino)-1-oxopropan-2-yl)-4-((4-phenylthiophen-2-yl)methyl)pyrrolidine-2-carboxamide Dihydrochloride]: the Ki on MASP-2 (CCP1-CCP2-SP) (read-out: MASP-2 Ki) was under 500 nM; at mMASP-2, under 500 nM; at human α-thrombin (Thrombin Ki (μM)) it was 10 to 25 µM. Besides, at MASP-2 (CCP1-CCP2-SP), the “MASP-2 vs. thrombin selectivity” value is reported as “**** (≥100-fold)”.

`Cc1cc(Cl)cc(CNC(=O)[C@H](C)NC(=O)[C@H]2C[C@H](Cc3ccccc3-c3ccccc3)CN2)c1O` [compound 1401, (2R,4S)-4-([1,1′-Biphenyl]-2-ylmethyl)-N-((S)-1-((5-chloro-2-hydroxy-3-methylbenzyl)amino)-1-oxopropan-2-yl)pyrrolidine-2-carboxamide Hydrochloride]: the Ki on MASP-2 (CCP1-CCP2-SP) (read-out: MASP-2 Ki) was under 500 nM; on mMASP-2 it was 500 to 2500 nM; on human α-thrombin (read-out: Thrombin Ki) it was over 25 µM.

Consider `C[C@H](NC(=O)[C@H]1C[C@H](Cc2ccccc2-c2ccccc2)CN1)C(=O)NCc1cc(Cl)ccc1-n1cnnn1` [compound 1402, (2R,4S)-4-([1,1′-Biphenyl]-2-ylmethyl)-N-((S)-1-((5-chloro-2-(1H-tetrazol-1-yl)benzyl)amino)-1-oxopropan-2-yl)pyrrolidine-2-carboxamide Trifluoroacetate], for which the Ki is under 500 nM on MASP-2 (CCP1-CCP2-SP) (read-out: MASP-2 Ki), 500 to 2500 nM on mMASP-2 and under 0.5 µM on human α-thrombin (read-out: Thrombin Ki). Besides, at MASP-2 (CCP1-CCP2-SP), the “MASP-2 vs. thrombin selectivity” value is on record as “* (≥1.0 to <5.0-fold)”.

As to `Cc1nc(N)ccc1CNC(=O)[C@H](C)NC(=O)[C@H]1C[C@H](Cc2ccc(-c3ccc(F)cc3CN)cc2)CN1` [compound 1403, (2R,4S)—N—((S)-1-(((6-Amino-2-methylpyridin-3-yl)methyl)amino)-1-oxopropan-2-yl)-4-((2′-(aminomethyl)-4′-fluoro-[1,1′-biphenyl]-4-yl)methyl)pyrrolidine-2-carboxamide], the Ki is under 500 nM at MASP-2 (CCP1-CCP2-SP) (read-out: MASP-2 Ki), 500 to 2500 nM on mMASP-2 and over 25 µM on human α-thrombin (read-out: Thrombin Ki).

In the case of `C[C@H](NC(=O)[C@H]1C[C@H](Cc2ccc(-c3cccnc3)cc2)CN1)C(=O)NCc1cc(Cl)ccc1-n1cnnn1` [compound 1404, (2R,4S)—N—((S)-1-((5-Chloro-2-(1H-tetrazol-1-yl)benzyl)amino)-1-oxopropan-2-yl)-4-(4-(pyridin-3-yl)benzyl)pyrrolidine-2-carboxamide Hydrochloride], the Ki was under 500 nM on MASP-2 (CCP1-CCP2-SP) (read-out: MASP-2 Ki), under 500 nM at mMASP-2 and under 0.5 µM on human α-thrombin (read-out: Thrombin Ki). Further, the “MASP-2 vs. thrombin selectivity” value at MASP-2 (CCP1-CCP2-SP) is given as “** (≥5.0 to <25-fold)”.

As for `C[C@H](NC(=O)[C@H]1C[C@H](Cc2ccc(-c3ccc(F)cc3C(N)=O)cc2)CN1)C(=O)NCc1cc(Cl)ccc1-n1cnnn1` [compound 1405, (2R,4S)-4-((2′-Carbamoyl-4′-fluoro-[1,1′-biphenyl]-4-yl)methyl)-N-((S)-1-((5-chloro-2-(1H-tetrazol-1-yl)benzyl)amino)-1-oxopropan-2-yl)pyrrolidine-2-carboxamide Hydrochloride], the results for the Ki at MASP-2 (CCP1-CCP2-SP) (read-out: MASP-2 Ki), at mMASP-2 and on human α-thrombin (Thrombin Ki (μM)) were under 500 nM, 500 to 2500 nM and 0.5 to 2.5 µM, respectively. In addition, the “MASP-2 vs. thrombin selectivity” value at MASP-2 (CCP1-CCP2-SP) is reported as “** (≥5.0 to <25-fold)”.

For `Cc1nc(N)ccc1CNC(=O)[C@H](C)NC(=O)[C@H]1C[C@H](Cc2cccc(-c3ccccc3)c2)CN1` [compound 1406, (2R,4S)-4-([1,1′-Biphenyl]-3-ylmethyl)-N-((S)-1-(((6-amino-2-methylpyridin-3-yl)methyl)amino)-1-oxopropan-2-yl)pyrrolidine-2-carboxamide Dihydrochloric acid], the Ki was under 500 nM on MASP-2 (CCP1-CCP2-SP) (read-out: MASP-2 Ki), under 500 nM on mMASP-2 and 2.5 to 10 µM on human α-thrombin (Thrombin Ki (μM)). Moreover, at MASP-2 (CCP1-CCP2-SP), the “MASP-2 vs. thrombin selectivity” value was “**** (≥100-fold)”.

With `Cc1cc(Cl)cc(CNC(=O)[C@H](C)NC(=O)[C@H]2C[C@H](Cc3ccccc3-c3ccc(Cl)s3)CN2)c1O` [compound 1408, (2R,4S)—N—((S)-1-((5-Chloro-2-hydroxy-3-methylbenzyl)amino)-1-oxopropan-2-yl)-4-(2-(5-chlorothiophen-2-yl)benzyl)pyrrolidine-2-carboxamide Hydrochloride], the inhibitory constant (Ki) on MASP-2 (CCP1-CCP2-SP) (read-out: MASP-2 Ki) was under 500 nM; on mMASP-2, 2500 to 10000 nM; at human α-thrombin (Thrombin Ki (μM)), 2.5 to 10 µM. For the same compound, the “MASP-2 vs. thrombin selectivity” value at MASP-2 (CCP1-CCP2-SP) was “** (≥5.0 to <25-fold)”.

On to `C[C@H](NC(=O)[C@H]1C[C@H](Cc2ccccc2-c2ccc(Cl)s2)CN1)C(=O)NCc1cc(Cl)ccc1-n1cnnn1` [compound 1409, (2R,4S)—N—((S)-1-((5-Chloro-2-(1H-tetrazol-1-yl)benzyl)amino)-1-oxopropan-2-yl)-4-(2-(5-chlorothiophen-2-yl)benzyl)pyrrolidine-2-carboxamide Trifluoroacetate], for which the Ki on MASP-2 (CCP1-CCP2-SP) (read-out: MASP-2 Ki) was under 500 nM; at mMASP-2 it was 2500 to 10000 nM; at human α-thrombin (read-out: Thrombin Ki), under 0.5 µM. In addition, the “MASP-2 vs. thrombin selectivity” value at MASP-2 (CCP1-CCP2-SP) is given as “* (≥1.0 to <5.0-fold)”.

Regarding `Cc1nc(N)ccc1CNC(=O)[C@H](C)NC(=O)[C@H]1C[C@H](Cc2ccccc2-c2ccc(Cl)s2)CN1` [compound 1410, (2R,4S)—N—((S)-1-(((6-Amino-2-methylpyridin-3-yl)methyl)amino)-1-oxopropan-2-yl)-4-(2-(5-chlorothiophen-2-yl)benzyl)pyrrolidine-2-carboxamide Trifluoroacetate], the Ki at MASP-2 (CCP1-CCP2-SP) (read-out: MASP-2 Ki) is under 500 nM; on mMASP-2, 500 to 2500 nM; at human α-thrombin (Thrombin Ki (μM)) it was 0.5 to 2.5 µM. Also, on MASP-2 (CCP1-CCP2-SP), the “MASP-2 vs. thrombin selectivity” value was “*** (≥25 to <100-fold)”.

In the case of `Cc1nc(N)ccc1CNC(=O)[C@H](C)NC(=O)[C@H]1C[C@@H](c2ccccc2)CCN1CCC(=O)O` [compound 1411, 3-((2R,4S)-2-(((S)-1-(((6-Amino-2-methylpyridin-3-yl)methyl)amino)-1-oxopropan-2-yl)carbamoyl)-4-phenylpiperidin-1-yl)propanoic acid Trifluoroacetate salt], the Ki was under 500 nM on MASP-2 (CCP1-CCP2-SP) (read-out: MASP-2 Ki), under 500 nM at mMASP-2 and over 25 µM at human α-thrombin (read-out: Thrombin Ki).
